From patent publication US20230048678A1, “ICAN DERIVATIVES FOR ANTIFUNGAL USE” (DEBRECENI EGYETEM, priority 2019, published 2023)
“Also recorded” adds a separate entry of the source.

Legend:
C. albicans isolates = test: CLSI M27-A3 broth microdilution on Candida isolates (Table 2); assay type: cell-based
Experimental: (§1) The tested C. albicans, C. tropicalis, C. parapsilosis, C. glabrata and C. krusei ATCC strains and clinical isolates are listed in Table 2. MICs were determined according to the CLSI M27-A3 [22]. Antifungal agents were dissolved in 100% DMSO and diluted further in RPMI-1640 (with L-glutamine but without bicarbonate) (Sigma, Budapest, Hungary), and buffered to pH 7.0 with 0.165 M morpholinopropanesulfonic acid (MOPS; Sigma, Budapest, Hungary). The final concentration ranges used for AMB and ICAN derivatives were 0.125 to 4 μg/ml and 0.04 to 20 μg/ml, respectively. Yeast cell suspensions were prepared in RPMI 1640 medium and were adjusted to give a final inoculum concentration of 0.5×10^3 to 2.5×10^3 cells/ml. MICs were read visually after 48-h incubation at 35° C. using the partial (50%) inhibition (for ICAN derivatives) (PI) and total inhibition (for AMB and ICAN derivatives) (TI) criteria. MICs were determined at least twice. For amphotericin B isolates with MIC values of ≤2 mg/L were considered wild-types. [Pfaller M A, 2012]

C. glabrata isolates = test: as above; assay type: cell-based
Experimental: as §1

C. krusei isolates = test: as above; assay type: cell-based
Experimental: as §1

C. parapsilosis isolates = test: as above; assay type: cell-based
Experimental: as §1

C. tropicalis isolates = test: as above; assay type: cell-based
Experimental: as §1

[1] = system: clinical Candida isolates (C. albicans, C. krusei, C. tropicalis, C. glabrata, C. parapsilosis); test: Broth microdilution, MIC summarised over all clinical Candida isolates; assay type: cell-based; conditions: range or bound over all tested isolates of five Candida species; read-out: total minimum inhibitory concentration (MICTI)
Experimental: The present inventors have discovered that 1-amino-5-isocyanonaphthalene (ICAN) and its derivatives exert excellent antifungal activity against a broad range of Candida species. […] Nevertheless, proper formulation and/or substitution with solubility enhancer groups on the naphthalene core may increase its effectiveness. Based on MIC values (MICPI=0.04−0.3 μg/ml MICTI=0.6 μg/ml) and its low cytotoxicity 1,1-N-dimethylamino-5-isocyanonaphthalene (DIMICAN) was selected to be tested on clinical Candida isolates. […] Amphotericin B (AMB) is an antifungal agent which is effective against a number of medically important fungi. The in vivo applicability of DIMICAN was tested on immunosuppressed mice and control experiments were also conducted with amphotericin B. In the model of acute invasive candidiasis, neutropenic mice were infected intravenously with C. albicans isolate 3666 (3×10^4 cfu/mouse) to establish an acute infection, and all untreated control animals died within 6 days. […]
The tested C. albicans, C. tropicalis, C. parapsilosis, C. glabrata and C. krusei ATCC strains and clinical isolates are listed in Table 2. MICs were determined according to the CLSI M27-A3 [22]. […] MICs were read visually after 48-h incubation at 35° C. using the partial (50%) inhibition (for ICAN derivatives) (PI) and total inhibition (for AMB and ICAN derivatives) (TI) criteria. MICs were determined at least twice. […]

C. albicans isolate 3666 = test: Murine model, kidney fungal burden; assay type: in vivo, BALB/c mice; conditions: immunosuppressed mice, 10^4 cfu/mouse iv
Experimental: During an independent in vivo experiment mice were infected intravenously with C. albicans isolate 3666. The infected mice were euthanized 2 or 6 days after infection (n=5 and 6 mice/time point, respectively), as disclosed herein, to determine the fungal burdens in the kidneys. Kidney burden was analyzed using a Kruskal-Wallis test with Dunn's posttest for multiple comparisons [Foldi R 2012, Kovacs R 2014]. Results of fungal burden experiments are shown on FIGS. 3b and c. […] It is well seen in […], that on day 6. the fungal burden increased by an order of magnitude (from −10^5 to −10^6) in the case of the untreated mice, while in the case of DIMICAN it remained the same as it was on day 2. The same is valid for AMB.
We used 10-12 week-old female BALB/c mice for all experiments. Mice were immunosuppressed using 150 mg/kg intraperitoneal (ip) cyclophosphamide dose (4 days prior to infection) and 100 mg/kg ip cyclophosphamide dose (1 day prior to infection; 2 and 5 days after infection) [Spellberg B, 2005]. All mice received ceftazidime (5 mg/day subcutaneously) from days 0 to 6 after infection. Mice were given food and water ad libitum and were monitored daily. The animals were maintained in accordance with the Guidelines for the Care and Use of Laboratory Animals, and the experiments were approved by the Animal Care Committee of the University of Debrecen, Debrecen, Hungary (permission no. 12/2014).
Mice were infected via the lateral tail vein with C. albicans 3666 bloodstream isolate. In the lethality (10 mice/group) and fungal tissue burden experiments (6 mice/group) the infectious doses were 3×10^4 and 10^4 cfu/mouse, respectively. These doses led to 100% and 0% mortality, respectively by day 6 after infection among untreated mice. Inoculum density was confirmed by plating serial dilutions onto Sabouraud dextrose agar (SDA) plates.
AMB (Fungizone, commercial preparation) and DIMICAN treatment in a 0.5-ml bolus was started 1 h after infection. The doses were 1 mg AMB and 5 mg DIMICAN (in olive oil/water (o/w) emulsion) per kg body weight. All antifungals were administered intraperitoneally once daily for 5 consecutive days.
Infected mice were euthanized 2 or 6 days after infection (n=6 mice/time point) to determine the fungal burden in the kidney. […] Aliquots of 0.1 ml of the undiluted and diluted homogenates were plated onto SDA, and the colony count was determined after 48 h. Colony-forming units (CFUs) were determined after 48 h of incubation at 37° C. and results were expressed as cfus/g tissue [Spellberg B, 2005]. […]
Survival effects were analyzed by the Kaplan—Meier log-rank test. Kidney burden was analysed using a Kruskal—Wallis test with Dunn's posttest for multiple comparisons [Foldi R 2012, Kovacs R 2014].

C. albicans SC5314 = test: CLSI broth microdilution susceptibility (Table 1); assay type: cell-based; conditions: 48 h, 35° C.; for MICPI: partial (50%) inhibition; for MICTI: total inhibition
Experimental: (§2) ICAN has 3 key moieties, namely the amino, naphthalene and isonitrile. To find out which ones of them are essential for the antifungal behavior and to design more efficient derivatives, comparative studies were carried out, where one of the moieties was exchanged or eliminated. All ICAN derivatives were tested against C. albicans SC5314, C. krusei ATCC 6258 and C. parapsilosis ATCC 22019. The antifungal agents were dissolved in 100% DMSO and diluted further in RPMI-1640 (with L-glutamine but without bicarbonate) and buffered to pH 7.0 with 0.165 M morpholinopropanesulfonic acid (MOPS). MICs were read visually after 48-h incubation at 35° C. using the partial (50%) inhibition (for ICAN derivatives) (PI) and total inhibition (for AMB and ICAN derivatives) (TI) criteria. MICs were determined at least twice.
as §1

C. krusei ATCC 6258 = test: CLSI broth microdilution susceptibility (Table 1); assay type: cell-based; conditions: 48 h, 35° C.; for MICPI: partial (50%) inhibition; for MICTI: total inhibition
Experimental: as §2, §1

[2] = system: C. parapsilosis ATCC 22019; test: CLSI broth microdilution susceptibility (Table 1); assay type: cell-based; conditions: 48 h, 35° C.; for MICPI: partial (50%) inhibition; for MICTI: total inhibition
Experimental: as §2, §1

[3] = system: C. albicans SC5314, C. krusei ATCC 6258 and C. parapsilosis ATCC 22019; test: CLSI broth microdilution, MIC summarised over the three Candida test strains; assay type: cell-based; conditions: for MICTI: value or range over the three Candida strains of Table 1, total inhibition
Experimental: as §2, §1

human cell cultures = test: MTT bio assay cytotoxicity; assay type: cell-based; conditions: MTT bio assay technique

## C[C@@H]1[C@H](O)[C@@H](C)/C=C/C=C/C=C/C=C/C=C/C=C/C=C/[C@H](O[C@@H]2O[C@H](C)[C@@H](O)[C@H](N)[C@@H]2O)C[C@@H]2O[C@](O)(C[C@@H](O)C[C@@H](O)[C@H](O)CC[C@@H](O)C[C@@H](O)CC(=O)O[C@H]1C)C[C@H](O)[C@H]2C(=O)O [AMB, Amphotericin B, reference compound]
C. albicans isolates; isolate 456
  MICTI: 0.5 µg/mL
C. albicans isolates; isolate 665
  MICTI: 1 µg/mL
C. albicans isolates; isolate 685
  MICTI: 0.25 µg/mL
C. albicans isolates; isolate 720
  MICTI: 0.5 µg/mL
C. albicans isolates; isolate 963
  MICTI: 0.5 µg/mL
C. albicans isolates; isolate 1544
  MICTI: 0.25 µg/mL
C. albicans isolates; isolate 3666
  MICTI: 0.5 µg/mL
C. albicans isolates; isolate 8658
  MICTI: 1 µg/mL
C. albicans isolates; isolate ATCC 10231
  MICTI: 0.25 µg/mL
C. glabrata isolates; isolate 14408
  MICTI: 0.5 µg/mL
C. glabrata isolates; isolate 14559
  MICTI: 0.5 µg/mL
C. glabrata isolates; isolate 22394
  MICTI: 0.5 µg/mL
C. glabrata isolates; isolate 23429
  MICTI: 1 µg/mL
C. glabrata isolates; isolate 23481
  MICTI: 1 µg/mL
C. glabrata isolates; isolate 27643
  MICTI: 0.5 µg/mL
C. glabrata isolates; isolate 28557
  MICTI: 0.5 µg/mL
C. glabrata isolates; isolate ATCC 90030
  MICTI: 0.5 µg/mL
C. krusei isolates; isolate 749
  MICTI: 1 µg/mL
C. krusei isolates; isolate 1853
  MICTI: 1 µg/mL
C. krusei isolates; isolate 4364
  MICTI: 1 µg/mL
C. krusei isolates; isolate 5029
  MICTI: 1 µg/mL
C. krusei isolates; isolate 5072
  MICTI: 1 µg/mL
C. krusei isolates; isolate 25504
  MICTI: 0.5 µg/mL
C. krusei isolates; isolate 34987
  MICTI: 1 µg/mL
C. krusei isolates; isolate ATCC 6258
  MICTI: 1 µg/mL
C. parapsilosis isolates; isolate 4133
  MICTI: 0.25 µg/mL
C. parapsilosis isolates; isolate 9613
  MICTI: 0.25 µg/mL
C. parapsilosis isolates; isolate 10252
  MICTI: 0.5 µg/mL
C. parapsilosis isolates; isolate 18154
  MICTI: 0.5 µg/mL
C. parapsilosis isolates; isolate 27001
  MICTI: 0.25 µg/mL
C. parapsilosis isolates; isolate ATCC 22019
  MICTI: 0.5 µg/mL
C. tropicalis isolates; isolate 579
  MICTI: 0.5 µg/mL
C. tropicalis isolates; isolate 622
  MICTI: 1 µg/mL
C. tropicalis isolates; isolate 1776
  MICTI: 1 µg/mL
C. tropicalis isolates; isolate 2467
  MICTI: 0.5 µg/mL
C. tropicalis isolates; isolate 3014
  MICTI: 0.5 µg/mL
C. tropicalis isolates; isolate 5115
  MICTI: 0.5 µg/mL
C. tropicalis isolates; isolate 5806
  MICTI: 0.25 µg/mL
C. tropicalis isolates; isolate ATCC 750
  MICTI: 0.5 µg/mL
[1]
  MIC: ≤ 2 µg/mL
C. albicans isolate 3666; 5 mg/kg DIMICAN or 1 mg/kg AMB ip once daily for 5 days, p<0.05 (AMB), p<0.001 (DIMICAN) vs control
  effect on kidney fungal burden, six days after infection: efficient; also recorded: significantly lower fungal burden
C. albicans isolate 3666; 5 mg/kg DIMICAN or 1 mg/kg AMB ip once daily, P>0.05 vs control
  effect on kidney fungal burden, two days after infection: no effect on fungal load

## Nc1cccc2c(N)cccc12 [DAN, 1,5-diaminonaphthalene, reference compound]
C. albicans SC5314
  MICPI: 50 µg/mL
  MICTI: 100 µg/mL
C. krusei ATCC 6258
  MICPI: 50 µg/mL
  MICTI: 100 µg/mL
[2]
  MICPI: 50 µg/mL
  MICTI: 100 µg/mL

## [C-]#[N+]c1cccc2c([N+]#[C-])cccc12 [DIN, 1,5-diisocyanonaphthalene]
C. albicans SC5314
  MICPI: 0.3 µg/mL
  MICTI: 0.6 µg/mL
C. krusei ATCC 6258
  MICPI: 0.3 µg/mL
  MICTI: 0.6 µg/mL
[2]
  MICPI: 0.3 µg/mL
  MICTI: 0.6 µg/mL
[3]; value or range over the three Candida strains of Table 1, partial (50%) inhibition
  MICPI: 0.3 µg/mL
[3]
  MICTI: 0.6 µg/mL

## [C-]#[N+]c1cccc2c(NCC)cccc12 [EICAN, N-ethyl-1-amino-5-isocyanonaphthalene]
C. albicans SC5314
  MICPI: 0.6 µg/mL
  MICTI: 2.5 µg/mL
C. krusei ATCC 6258
  MICPI: 0.6 µg/mL
  MICTI: 1.25 µg/mL
[2]
  MICPI: 0.6 µg/mL
  MICTI: 1.25 µg/mL
[3]
  MICTI: 1.25 to 2.5 µg/mL

## [C-]#[N+]c1cccc2c(N)cccc12 [ICAN, 1-amino-5-isocyanonaphthalene]
C. albicans SC5314
  MICPI: 1.25 µg/mL
  MICTI: 5 µg/mL
C. krusei ATCC 6258
  MICPI: 0.6 µg/mL
  MICTI: 2.5 µg/mL
[2]
  MICPI: 0.3 µg/mL
  MICTI: 0.6 µg/mL
[3]
  MICTI: 0.6 to 5 µg/mL
Human cell cultures
  LD50: 10 µg/mL

## [C-]#[N+]c1ccc([N+]#[C-])cc1 [PDI, 1,4-phenylenediisocyanide, reference compound]
C. albicans SC5314
  MICPI: 50 µg/mL
  MICTI: 100 µg/mL
C. krusei ATCC 6258
  MICPI: 50 µg/mL
  MICTI: 100 µg/mL
[2]
  MICPI: 50 µg/mL
  MICTI: 100 µg/mL

## [C-]#[N+]c1cccc2c(NCCC)cccc12 [PICAN, N-(prop-1-yl)-1-amino-5-isocyanonaphthalene]
C. albicans SC5314
  MICPI: 0.6 µg/mL
  MICTI: 2.5 µg/mL
C. krusei ATCC 6258
  MICPI: 0.15 µg/mL
  MICTI: 2.5 µg/mL
[2]
  MICPI: 0.6 µg/mL
  MICTI: 1.75 µg/mL
[3]
  MICTI: 1.75-2. μg/ml
